IC50 data for 21 compounds are collected here from US20210395239A1 (Hoffmann-La Roche Inc., priority 2018, published 2021).

pIC50: −log10 of the molar value.

The experiment addresses T1, human TLR7 (Homo sapiens, UniProt Q9NYK1).
T1 construct: host or cells: HEK293 (HEK-Blue hTLR7)
T1 sequence (Q9NYK1 27-1049): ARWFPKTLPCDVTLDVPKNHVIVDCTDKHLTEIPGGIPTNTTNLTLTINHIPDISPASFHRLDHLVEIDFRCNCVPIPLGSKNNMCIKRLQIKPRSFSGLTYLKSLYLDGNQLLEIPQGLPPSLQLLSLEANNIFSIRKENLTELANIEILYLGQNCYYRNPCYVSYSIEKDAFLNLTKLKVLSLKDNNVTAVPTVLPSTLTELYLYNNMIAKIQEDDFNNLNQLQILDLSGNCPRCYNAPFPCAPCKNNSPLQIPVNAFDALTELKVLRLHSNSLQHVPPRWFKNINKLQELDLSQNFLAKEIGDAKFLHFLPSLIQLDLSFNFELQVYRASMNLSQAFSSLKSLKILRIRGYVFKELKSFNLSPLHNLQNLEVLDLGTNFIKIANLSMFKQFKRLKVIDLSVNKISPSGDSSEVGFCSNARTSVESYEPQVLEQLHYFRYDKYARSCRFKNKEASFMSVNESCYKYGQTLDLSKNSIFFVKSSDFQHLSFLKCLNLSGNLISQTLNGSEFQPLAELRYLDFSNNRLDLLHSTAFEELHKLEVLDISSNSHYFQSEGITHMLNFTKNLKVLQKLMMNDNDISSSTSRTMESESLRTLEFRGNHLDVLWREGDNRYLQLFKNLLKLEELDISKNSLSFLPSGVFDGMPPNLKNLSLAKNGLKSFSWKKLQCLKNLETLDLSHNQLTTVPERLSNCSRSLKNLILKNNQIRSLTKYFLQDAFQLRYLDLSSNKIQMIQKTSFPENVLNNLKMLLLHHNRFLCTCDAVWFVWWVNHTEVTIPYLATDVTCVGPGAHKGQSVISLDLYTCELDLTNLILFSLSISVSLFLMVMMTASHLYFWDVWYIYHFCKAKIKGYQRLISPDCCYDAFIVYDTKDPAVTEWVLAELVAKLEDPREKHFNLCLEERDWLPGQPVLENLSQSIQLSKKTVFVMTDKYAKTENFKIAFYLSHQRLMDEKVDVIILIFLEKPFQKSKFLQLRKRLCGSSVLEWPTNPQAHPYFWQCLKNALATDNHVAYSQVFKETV
In words: HEK293-Blue-hTLR-7 cells assay (SEAP reporter, R848 stimulation). Conditions: HEK293-Blue-hTLR7 cells, R848, 20 hrs; read-out: HEK/hTLR7 IC50. The experiment is classed as cell-based. The gist of the method:
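HEK293-Blue-hTLR7 cells (NF-κB/AP-1-driven SEAP reporter) were stimulated with R848 alongside serially diluted compound at 1% final DMSO for 20 h at 37 °C. Supernatant SEAP was then developed with QUANTI-Blue for 2 h at 37 °C and absorbance read at 620–655 nm; antagonism is measured as reduced reporter signal.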
Take `C[C@@H]1CN(c2ccc(C#N)c3ncccc23)C[C@H](CN2CCN(c3cccc(C4CNCCO4)c3)CC2)O1` (stereo partly drawn) [Example 62, 5-[(2R,6S)-2-methyl-6-[[4-(3-morpholin-2-ylphenyl)piperazin-1-yl]methyl]-morpholin-4-yl]quinoline-8-carbonitrile]: the pIC50 was 7.74. The result for `C[C@@H]1CN(c2ccc(C#N)n3ncc(F)c23)C[C@H](CN2CCN(c3ccc(N4CC5(CCN5)C4)nc3)CC2)O1` [Example 179, 4-[(2S,6R)-2-[[4-[6-(1,6-diazaspiro[3.3]heptan-6-yl)-3-pyridyl]piperazin-1-yl]methyl]-6-methyl-morpholin-4-yl]-3-fluoro-pyrazolo[1,5-a]pyridine-7-carbonitrile] reads 7.52; that for `C[C@@H]1CN(c2ccc(C#N)c3ncccc23)C[C@H](CN2CCN(c3ccc(N4CCNCC4)nc3)CC2)O1` [Example 13, 5-[(2R,6S)-2-methyl-6-[[4-(6-piperazin-1-yl-3-pyridyl)piperazin-1-yl]methyl]morpholin-4-yl]quinoline-8-carbonitrile], 7.74; that for `C[C@@H]1CN(c2ccc(C#N)c3ncccc23)C[C@H](CN2CCN(c3cccc(N4CCN(C)CC4)n3)CC2)O1` [Example 33, 5-[(2R,6S)-2-methyl-6-[[4-[6-(4-methylpiperazin-1-yl)-2-pyridyl]piperazin-1-yl]methyl]morpholin-4-yl]quinoline-8-carbonitrile], 7.62.

For `COc1cnc(N2CCNCC2)nc1N1CCN(C[C@H]2CN(c3ccc(C#N)c4ncccc34)C[C@@H](C)O2)CC1` [Example 48, 5-[(2S,6R)-2-[[4-(5-methoxy-2-piperazin-1-yl-pyrimidin-4-yl)piperazin-1-yl]methyl]-6-methyl-morpholin-4-yl]quinoline-8-carbonitrile], the pIC50 was 8.05. Next, `Cc1cc(N2CCN(C[C@H]3CN(c4ccc(C#N)c5ncccc45)C[C@@H](C)O3)CC2)nc(N2CCOCC(N)C2)n1` (stereo partly drawn) [Example 56, 5-[(2S,6R)-2-[[4-[2-(6-amino-1,4-oxazepan-4-yl)-6-methyl-pyrimidin-4-yl]piperazin-1-yl]methyl]-6-methyl-morpholin-4-yl]quinoline-8-carbonitrile]: 7.25. Turning to `C[C@@H]1CN(c2ccc(C#N)n3ncc(F)c23)C[C@H](CN2CCN(c3ccc(C4(C)CNCCO4)cc3)CC2)O1` (stereo partly drawn) [Example 185, 3-fluoro-4-[(2R,6S)-2-methyl-6-[[4-[4-(2-methylmorpholin-2-yl)phenyl]piperazin-1-yl]methyl]morpholin-4-yl]pyrazolo[1,5-a]pyridine-7-carbonitrile], the pIC50 is 7.41.

On to `C[C@@H]1CN(c2ccc(C#N)c3ncccc23)C[C@H](CN2CCN(c3ncc(N4CCNCC4)cn3)CC2)O1` [Example 17, 5-[(2R,6S)-2-methyl-6-[[4-(5-piperazin-1-ylpyrimidin-2-yl)piperazin-1-yl]methyl]morpholin-4-yl]quinoline-8-carbonitrile], for which the pIC50 was 7.51. `CO[C@H]1CN(c2nc(C)cc(N3CCN(C[C@H]4CN(c5ccc(C#N)c6ncccc56)C[C@@H](C)O4)CC3)n2)C[C@H]1N` [Example 60, 5-[(2R,6S)-2-methyl-6-[[4-[6-methyl-2-[cis-3-amino-4-methoxy-pyrrolidin-1-yl]pyrimidin-4-yl]piperazin-1-yl]methyl]morpholin-4-yl]quinoline-8-carbonitrile]: the pIC50 is 7.96. Next, `C[C@@H]1CN(c2ccc(C#N)c3ncccc23)C[C@H](CN2CCN(c3ccnc(N4CCN(C(=O)[C@@H]5CCCN5)CC4)n3)CC2)O1` [Example 31, 5-[(2R,6S)-2-methyl-6-[[4-[2-[4-[(2S)-pyrrolidine-2-carbonyl]piperazin-1-yl]pyrimidin-4-yl]piperazin-1-yl]methyl]morpholin-4-yl]quinoline-8-carbonitrile]: 7.74; `C[C@@H]1CN(c2ccc(C#N)c3ncccc23)C[C@H](CN2CCN(c3ccc([C@H]4CNCCO4)cc3)CC2)O1` [Example 20, 5-[(2R,6S)-2-methyl-6-[[4-[4-[(2S)-morpholin-2-yl]phenyl]piperazin-1-yl]methyl]morpholin-4-yl]quinoline-8-carbonitrile]: 7.70; `C[C@@H]1CN(c2ccc(C#N)n3ncc(F)c23)C[C@H](CN2CCN(c3ccc(C4CNCCO4)cc3F)CC2)O1` (stereo in doubt) [Example 183, 3-fluoro-4-[(2S,6R)-2-[[4-[2-fluoro-4-[(2S)-morpholin-2-yl]phenyl]piperazin-1-yl]methyl]-6-methyl-morpholin-4-yl]pyrazolo[1,5-a]pyridine-7-carbonitrile]: 7.55. Next, `Cc1cc(N2CCN(C[C@H]3CN(c4ccc(C#N)c5ncccc45)C[C@@H](C)O3)CC2)nc(N2CC(N)C(F)C2)n1` (stereo in doubt) [Example 54, 5-[(2S,6R)-2-[[4-[2-[(3S,4R)-3-amino-4-fluoro-pyrrolidin-1-yl]-6-methyl-pyrimidin-4-yl]piperazin-1-yl]methyl]-6-methyl-morpholin-4-yl]quinoline-8-carbonitrile]: 8.05; `C[C@@H]1CN(c2cc(=O)n(C)c3ncccc23)C[C@H](CN2CC(c3ccc(N4CCNCC4)cc3)C2)O1` [Example 171, 1-methyl-4-[(2R,6S)-2-methyl-6-[[3-(4-piperazin-1-ylphenyl)azetidin-1-yl]methyl]morpholin-4-yl]-1,8-naphthyridin-2-one]: 7.42; `C[C@@H]1CN(c2ccc(C#N)c3ncccc23)C[C@H](CN2CCN(c3nc(N4CCNCC4)nc4ccccc34)CC2)O1` [Example 49, 5-[(2R,6S)-2-methyl-6-[[4-(2-piperazin-1-ylquinazolin-4-yl)piperazin-1-yl]methyl]morpholin-4-yl]quinoline-8-carbonitrile]: 7.54. The result for `C[C@@H]1CN(c2ccc(C#N)c3ncccc23)C[C@H](CN2CCN(c3cccc(N[C@H]4CNC[C@H]4F)n3)CC2)O1` [Example 37, 5-[(2S,6R)-2-[[4-[6-[[(3S,4R)-4-fluoropyrrolidin-3-yl]amino]-2-pyridyl]piperazin-1-yl]methyl]-6-methyl-morpholin-4-yl]quinoline-8-carbonitrile] reads 7.15; that for `Cc1cc(N2CCN(C[C@H]3CN(c4ccc(C(F)(F)F)c5nccnc45)C[C@@H](C)O3)CC2)nc(N2CCNCC2)n1` [Example 65, (2R,6S)-2-methyl-6-[[4-(6-methyl-2-piperazin-1-yl-pyrimidin-4-yl)piperazin-1-yl]methyl]-4-[8-(trifluoromethyl)quinoxalin-5-yl]morpholine], 7.82. On to `C[C@@H]1CN(c2ccc(C#N)c3ncccc23)C[C@H](CN2CCN(c3cnc(N4CCNCC4)nc3)CC2)O1` [Example 12, 5-[(2R,6S)-2-methyl-6-[[4-(2-piperazin-1-ylpyrimidin-5-yl)piperazin-1-yl]methyl]morpholin-4-yl]quinoline-8-carbonitrile], for which the pIC50 was 7.92. Take `Cc1cc(N2CCN(C[C@H]3CN(c4ccc(C#N)c5ncccc45)C[C@@H](C)O3)CC2)nc(N2CC3(CNCCO3)C2)n1` [Example 61, 5-[(2R,6S)-2-methyl-6-[[4-[6-methyl-2-(5-oxa-2,8-diazaspiro[3.5]nonan-2-yl)pyrimidin-4-yl]piperazin-1-yl]methyl]morpholin-4-yl]quinoline-8-carbonitrile]: the pIC50 was 8.10. Take `C[C@@H]1CN(c2cc(=O)n(C)c3ncccc23)C[C@H](CN2CC(c3ccc(N4CC5(CNCCO5)C4)cc3)C2)O1` [Example 173, 1-methyl-4-[(2R,6S)-2-methyl-6-[[3-[4-(5-oxa-2,8-diazaspiro[3.5]nonan-2-yl)phenyl]azetidin-1-yl]methyl]morpholin-4-yl]-1,8-naphthyridin-2-one]: the pIC50 was 7.54.

On to `C[C@@H]1CN(c2cc(=O)n(C)c3ncccc23)C[C@H](CN2CC(c3ccc(N4CC5(CN(C)C5)C4)cc3)C2)O1` [Example 180, 1-methyl-4-[(2R,6S)-2-methyl-6-[[3-[4-(6-methyl-2,6-diazaspiro[3.3]heptan-2-yl)phenyl]azetidin-1-yl]methyl]morpholin-4-yl]-1,8-naphthyridin-2-one], for which the pIC50 was 7.28.
